Data from ChEMBL document CHEMBL1201862, “PubChem BioAssay data set” (2004).
The source made the active and inactive calls.

Legend:
[1] = cells
[2] = molecular target: Major prion protein (Homo sapiens, UniProt P04156); format: functional, cell-based
[3] = molecular target: Prothrombin (Homo sapiens, UniProt P00734); experiment: Thrombin 1536 HTS Dose Response Confirmation. [Related pubchem assays: 1046 (Thrombin 1536 HTS; hits were confirmed in this assay)]; format: functional
[4] = molecular target: Estrogen receptor beta (Homo sapiens, UniProt Q92731);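 further: recombinant ER-beta bound to coactivator SRC1 peptide in presence of estradiol agonist; inhibitors block coactivator peptide binding and lower the FRET signal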
Sequence of Estrogen receptor beta (Q92731 whole entry): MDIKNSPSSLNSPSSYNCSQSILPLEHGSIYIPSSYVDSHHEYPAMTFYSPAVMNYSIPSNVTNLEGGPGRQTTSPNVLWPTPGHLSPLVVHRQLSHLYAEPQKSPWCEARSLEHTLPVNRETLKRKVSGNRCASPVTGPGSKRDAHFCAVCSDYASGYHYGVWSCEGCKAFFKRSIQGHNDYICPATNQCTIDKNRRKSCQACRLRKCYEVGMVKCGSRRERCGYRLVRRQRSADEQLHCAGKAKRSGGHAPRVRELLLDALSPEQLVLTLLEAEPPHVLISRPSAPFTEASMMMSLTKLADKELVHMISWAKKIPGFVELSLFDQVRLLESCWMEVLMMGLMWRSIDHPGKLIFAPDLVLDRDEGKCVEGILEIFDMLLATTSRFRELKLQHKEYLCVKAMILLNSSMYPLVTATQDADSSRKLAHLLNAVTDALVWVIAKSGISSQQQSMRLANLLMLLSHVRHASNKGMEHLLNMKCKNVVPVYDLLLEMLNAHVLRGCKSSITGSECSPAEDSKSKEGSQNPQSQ

[5] = tested on: Vero; experiment: viability of Vero cells under compound – cytotoxicity control for flavivirus capping enzyme inhibitors (AID 588742); format: functional; settings: Chlorocebus sabaeus
[6] = molecular target: Genome polyprotein (dengue virus type 2, UniProt P29990); experiment: flavivirus cap methylation enzyme inhibition – biochemical, confirmation dose response, primary screen (AID 588689); format: functional
Sequence of Genome polyprotein (P29990 2492-3391 limits assumed): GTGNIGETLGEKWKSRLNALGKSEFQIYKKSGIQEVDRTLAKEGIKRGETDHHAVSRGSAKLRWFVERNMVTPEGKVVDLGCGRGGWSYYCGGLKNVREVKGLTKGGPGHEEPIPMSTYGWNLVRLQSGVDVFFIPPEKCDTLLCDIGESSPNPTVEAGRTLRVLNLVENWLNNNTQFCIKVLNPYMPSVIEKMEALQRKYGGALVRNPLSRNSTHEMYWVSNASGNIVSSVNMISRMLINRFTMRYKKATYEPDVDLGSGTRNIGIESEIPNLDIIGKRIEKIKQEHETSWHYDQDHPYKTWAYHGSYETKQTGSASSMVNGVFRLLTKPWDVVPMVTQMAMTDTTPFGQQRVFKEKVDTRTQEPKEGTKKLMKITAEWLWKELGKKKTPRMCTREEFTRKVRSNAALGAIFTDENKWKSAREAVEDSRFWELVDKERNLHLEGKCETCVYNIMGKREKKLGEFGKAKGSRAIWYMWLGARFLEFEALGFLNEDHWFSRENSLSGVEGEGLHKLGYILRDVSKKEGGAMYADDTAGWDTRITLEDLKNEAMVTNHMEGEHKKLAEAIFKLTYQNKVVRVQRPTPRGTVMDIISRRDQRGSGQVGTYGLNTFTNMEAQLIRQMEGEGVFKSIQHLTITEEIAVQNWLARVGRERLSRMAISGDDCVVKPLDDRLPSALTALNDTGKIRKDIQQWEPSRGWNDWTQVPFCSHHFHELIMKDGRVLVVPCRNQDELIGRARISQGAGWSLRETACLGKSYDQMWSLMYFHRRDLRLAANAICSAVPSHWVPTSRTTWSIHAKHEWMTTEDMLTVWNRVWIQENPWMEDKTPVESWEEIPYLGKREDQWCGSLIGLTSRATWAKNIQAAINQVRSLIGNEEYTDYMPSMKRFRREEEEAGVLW

[7] = cells; format: functional, cell-based
[8] = cells; format: functional, cell-based; remark: listed apart in the source
[9] = molecular target: T1, Protein RecA (Mycobacterium tuberculosis, UniProt P9WHJ3); experiment: Fluorescence Cell-Free Homogeneous Dose Retest to Identify Inhibitors of RecA-Intein Splicing Activity. [Related pubchem assays (depositor defined):AID2097, AID2223, AID489010, AID492950]; format: functional
T1 sequence (P9WHJ3 whole entry): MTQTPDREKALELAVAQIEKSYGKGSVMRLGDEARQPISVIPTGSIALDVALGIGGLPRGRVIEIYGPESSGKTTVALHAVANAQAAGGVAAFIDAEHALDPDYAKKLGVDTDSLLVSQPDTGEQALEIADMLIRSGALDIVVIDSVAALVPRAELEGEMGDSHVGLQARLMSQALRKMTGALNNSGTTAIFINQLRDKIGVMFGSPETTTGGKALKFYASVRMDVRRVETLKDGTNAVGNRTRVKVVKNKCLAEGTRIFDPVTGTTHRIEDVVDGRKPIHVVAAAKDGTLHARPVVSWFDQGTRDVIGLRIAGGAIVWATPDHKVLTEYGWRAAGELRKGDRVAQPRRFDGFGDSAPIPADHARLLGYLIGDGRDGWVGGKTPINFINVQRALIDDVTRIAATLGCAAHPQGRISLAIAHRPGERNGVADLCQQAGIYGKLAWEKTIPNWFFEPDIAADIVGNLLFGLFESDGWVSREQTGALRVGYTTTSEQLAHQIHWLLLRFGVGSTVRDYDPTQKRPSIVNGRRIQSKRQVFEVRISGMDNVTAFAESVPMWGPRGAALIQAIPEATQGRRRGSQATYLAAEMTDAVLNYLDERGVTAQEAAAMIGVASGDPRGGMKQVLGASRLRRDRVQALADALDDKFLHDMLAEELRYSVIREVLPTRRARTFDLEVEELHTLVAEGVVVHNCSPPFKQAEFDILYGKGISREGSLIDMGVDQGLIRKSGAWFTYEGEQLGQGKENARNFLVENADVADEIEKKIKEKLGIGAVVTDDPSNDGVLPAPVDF

[10] = molecular target: T2, Replicative DNA helicase DnaB (Mycobacterium tuberculosis, UniProt P9WMR3); experiment: DnaB intein splicing inhibitors, dose response, biochemical, cell-free fluorescence (AID 449749); format: functional
T2 sequence (P9WMR3 whole entry): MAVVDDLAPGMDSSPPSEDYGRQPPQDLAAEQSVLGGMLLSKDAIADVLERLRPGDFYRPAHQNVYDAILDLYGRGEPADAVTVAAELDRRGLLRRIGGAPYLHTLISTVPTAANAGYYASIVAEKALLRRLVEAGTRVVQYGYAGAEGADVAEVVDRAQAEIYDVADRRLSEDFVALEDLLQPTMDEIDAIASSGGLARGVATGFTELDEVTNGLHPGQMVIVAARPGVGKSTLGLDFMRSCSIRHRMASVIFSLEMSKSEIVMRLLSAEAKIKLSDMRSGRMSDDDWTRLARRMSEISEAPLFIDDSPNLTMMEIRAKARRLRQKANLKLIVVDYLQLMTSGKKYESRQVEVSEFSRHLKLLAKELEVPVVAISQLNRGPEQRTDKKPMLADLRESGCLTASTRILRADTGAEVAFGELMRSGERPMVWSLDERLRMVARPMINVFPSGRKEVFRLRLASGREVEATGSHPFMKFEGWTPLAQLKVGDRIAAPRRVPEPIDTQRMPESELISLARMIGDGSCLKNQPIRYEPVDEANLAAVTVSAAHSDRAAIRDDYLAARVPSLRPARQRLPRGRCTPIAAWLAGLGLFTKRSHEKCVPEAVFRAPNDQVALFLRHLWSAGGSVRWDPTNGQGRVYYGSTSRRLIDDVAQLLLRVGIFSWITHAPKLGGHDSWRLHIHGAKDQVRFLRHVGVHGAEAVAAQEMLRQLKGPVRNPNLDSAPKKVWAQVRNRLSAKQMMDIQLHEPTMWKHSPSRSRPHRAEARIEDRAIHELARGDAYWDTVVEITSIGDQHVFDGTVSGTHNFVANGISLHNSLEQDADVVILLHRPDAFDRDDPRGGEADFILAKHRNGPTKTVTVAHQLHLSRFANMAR

[11] = molecular target: FAD-linked sulfhydryl oxidase ALR (Homo sapiens, UniProt P55789); experiment: ALR-catalysed DTT oxidation blockers – biochemical, H2O2 detection, luminescence, cherry-pick, dose response (AID 493248)
Sequence of FAD-linked sulfhydryl oxidase ALR (P55789 whole entry, the tested form may be a part): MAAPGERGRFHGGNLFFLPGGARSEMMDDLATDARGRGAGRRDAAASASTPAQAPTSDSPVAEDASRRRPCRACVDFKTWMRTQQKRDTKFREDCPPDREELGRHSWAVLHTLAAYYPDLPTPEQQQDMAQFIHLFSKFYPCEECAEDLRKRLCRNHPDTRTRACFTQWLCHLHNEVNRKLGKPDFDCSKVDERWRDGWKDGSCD

[12] = blockers of HIV-1 ZM109 envelope-driven cell-cell fusion – HeLa effector, CEM target cells, luciferase, cherry-pick, dose response (AID 652058); format: functional, cell-based;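 further: luciferase signal from HIV-1 Env mediated cell-cell fusion of effector and target cells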
[13] = HIV-1 AD8 envelope cell-cell fusion blockers – cherry-pick, dose response (AID 652062); format: functional, cell-based;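 further: luciferase signal from cell-cell fusion driven by HIV-1 clade B AD8 Env; potency is for inhibitors of fusion seen as a drop in luminescence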
[14] = molecular target: T3, Apoptotic protease-activating factor 1 (Homo sapiens, UniProt O14727); format: functional
T3 sequence (O14727 whole entry): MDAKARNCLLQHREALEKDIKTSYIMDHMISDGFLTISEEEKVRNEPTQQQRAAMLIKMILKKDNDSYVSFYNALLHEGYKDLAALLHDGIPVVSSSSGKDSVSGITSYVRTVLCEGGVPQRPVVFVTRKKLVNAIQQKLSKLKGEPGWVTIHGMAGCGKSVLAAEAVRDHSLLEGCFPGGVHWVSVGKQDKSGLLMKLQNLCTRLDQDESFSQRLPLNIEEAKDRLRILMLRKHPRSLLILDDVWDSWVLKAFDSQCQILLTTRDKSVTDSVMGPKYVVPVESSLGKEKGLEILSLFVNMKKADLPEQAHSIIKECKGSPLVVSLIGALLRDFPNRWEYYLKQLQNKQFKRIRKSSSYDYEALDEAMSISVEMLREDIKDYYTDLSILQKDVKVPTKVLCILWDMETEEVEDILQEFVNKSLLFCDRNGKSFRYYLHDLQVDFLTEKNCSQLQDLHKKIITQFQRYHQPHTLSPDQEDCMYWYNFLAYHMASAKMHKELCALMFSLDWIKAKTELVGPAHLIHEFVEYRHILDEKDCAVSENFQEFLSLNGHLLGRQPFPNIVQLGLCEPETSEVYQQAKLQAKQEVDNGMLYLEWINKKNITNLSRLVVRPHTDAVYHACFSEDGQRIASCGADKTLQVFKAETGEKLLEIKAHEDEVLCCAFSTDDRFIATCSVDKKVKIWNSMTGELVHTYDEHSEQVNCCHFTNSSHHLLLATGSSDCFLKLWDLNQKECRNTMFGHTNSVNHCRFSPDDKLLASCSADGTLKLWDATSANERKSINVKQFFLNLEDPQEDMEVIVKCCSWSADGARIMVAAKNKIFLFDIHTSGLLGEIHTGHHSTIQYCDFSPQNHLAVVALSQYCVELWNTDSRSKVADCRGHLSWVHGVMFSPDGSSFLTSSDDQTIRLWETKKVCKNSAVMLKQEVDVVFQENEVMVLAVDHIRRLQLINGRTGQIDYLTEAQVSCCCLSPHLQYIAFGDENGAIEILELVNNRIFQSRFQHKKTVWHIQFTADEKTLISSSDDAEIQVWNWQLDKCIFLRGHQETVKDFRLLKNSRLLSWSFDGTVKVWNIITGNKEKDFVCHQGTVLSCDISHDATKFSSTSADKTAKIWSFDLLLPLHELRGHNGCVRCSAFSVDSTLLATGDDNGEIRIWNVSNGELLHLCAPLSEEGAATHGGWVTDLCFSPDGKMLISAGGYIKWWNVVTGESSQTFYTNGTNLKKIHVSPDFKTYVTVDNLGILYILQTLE

[15] = molecular target: Glucose-6-phosphate 1-dehydrogenase (Homo sapiens, UniProt P11413); experiment: inhibition of Homo sapiens G6PD, dose series – biochemical, fluorescence, selectivity assay for P. falciparum G6PD inhibitor project, dose response (AID 504792); format: functional
Sequence of Glucose-6-phosphate 1-dehydrogenase (P11413 whole entry): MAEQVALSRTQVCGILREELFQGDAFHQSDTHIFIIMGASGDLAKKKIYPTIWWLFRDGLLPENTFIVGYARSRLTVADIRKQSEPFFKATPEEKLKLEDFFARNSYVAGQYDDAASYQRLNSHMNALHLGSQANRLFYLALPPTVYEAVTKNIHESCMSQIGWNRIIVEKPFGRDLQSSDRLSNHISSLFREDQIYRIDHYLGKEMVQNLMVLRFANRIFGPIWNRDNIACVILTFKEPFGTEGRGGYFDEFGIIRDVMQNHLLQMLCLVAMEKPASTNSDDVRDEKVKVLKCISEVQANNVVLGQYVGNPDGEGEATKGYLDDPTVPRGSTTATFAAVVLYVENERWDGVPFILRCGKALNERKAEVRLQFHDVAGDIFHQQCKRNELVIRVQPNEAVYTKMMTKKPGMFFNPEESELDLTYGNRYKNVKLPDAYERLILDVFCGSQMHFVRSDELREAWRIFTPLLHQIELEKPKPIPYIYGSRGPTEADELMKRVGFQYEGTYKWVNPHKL

[16] = NIH-3T3 fibroblast cytotoxicity, dose response, cytotoxicity control, cell-based, fluorescence, Alamar Blue, secondary assay (AID 2327); format: functional;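 further: NIH-3T3 mouse fibroblasts cultured with fluconazole at 8 µg/mL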
[17] = molecular target: Induced myeloid leukemia cell differentiation protein Mcl-1 (Homo sapiens, UniProt Q07820); format: functional
Sequence of Induced myeloid leukemia cell differentiation protein Mcl-1 (Q07820 whole entry): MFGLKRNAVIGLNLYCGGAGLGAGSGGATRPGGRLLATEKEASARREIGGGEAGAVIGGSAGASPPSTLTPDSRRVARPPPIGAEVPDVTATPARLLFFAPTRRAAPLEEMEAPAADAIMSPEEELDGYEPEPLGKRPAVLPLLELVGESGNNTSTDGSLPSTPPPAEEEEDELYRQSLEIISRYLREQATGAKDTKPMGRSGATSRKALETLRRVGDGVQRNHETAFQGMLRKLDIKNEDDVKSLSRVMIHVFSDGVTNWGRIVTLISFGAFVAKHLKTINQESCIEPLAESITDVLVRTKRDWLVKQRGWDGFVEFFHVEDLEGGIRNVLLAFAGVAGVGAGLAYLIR

[18] = fluconazole-exposed Candida albicans growth modulators – fluorescence, retest, confirmation (AID 2467); format: functional, cell-based
[19] = molecular target: T4, Mannose-6-phosphate isomerase (Homo sapiens, UniProt P34949); experiment: MPI inhibition at elevated mannose 6-phosphate – biochemical, fluorescence intensity, high mannose 6-phosphate, primary screen (AID 1220)
T4 sequence (P34949 whole entry): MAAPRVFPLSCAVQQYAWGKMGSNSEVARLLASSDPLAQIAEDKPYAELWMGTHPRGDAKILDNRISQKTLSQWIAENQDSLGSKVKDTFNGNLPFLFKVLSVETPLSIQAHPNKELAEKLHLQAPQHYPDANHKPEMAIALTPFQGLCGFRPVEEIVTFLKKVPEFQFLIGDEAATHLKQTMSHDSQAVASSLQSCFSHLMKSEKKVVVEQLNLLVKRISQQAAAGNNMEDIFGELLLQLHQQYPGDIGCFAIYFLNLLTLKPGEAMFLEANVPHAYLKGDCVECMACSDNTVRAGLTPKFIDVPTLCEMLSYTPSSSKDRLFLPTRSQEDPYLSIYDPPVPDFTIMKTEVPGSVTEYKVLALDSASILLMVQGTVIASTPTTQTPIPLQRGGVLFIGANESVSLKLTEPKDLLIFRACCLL

[20] = blockers of bursicon-stimulated LGR2 cAMP reporter – cell-based, HEK293, CRE-luciferase reporter, cherry pick, set 2, dose response (AID 743343); format: functional;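 further: transfected cells were stimulated with diluted bursicon conditioned medium after compound addition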
[21] = A549 cell cytotoxicity, dose response, cytotoxicity control, plate reader, cherry-pick, antagonist series (AID 743412); format: functional, cell-based
[22] = toxicity toward HepG2 liver cells – cell-based, plate reader, cherry-pick, antagonist series, cytotoxicity control, dose response (AID 743416); format: functional
[23] = blockers of HIV-1 envelope-mediated cell-cell fusion – cherry-pick, dose response (AID 652057); format: functional, cell-based

CC(C)c1nc(SCC(=O)Nc2nc3c(s2)CCCC3)c2ccccc2n1
IC50 [1]: > 138 µM (inactive)
IC50 [2]: 5.97 µM (active)

Cc1c(-c2cccs2)[n+]([O-])c2c([n+]1[O-])CCC2
IC50 [3]: > 50 µM (not active)

CCOC(=O)COc1cc(Br)c(/C=N/Nc2ccccc2)cc1OC
IC50 [1]: > 138 µM (inactive)
IC50 [2]: 16.4 µM (inactive)

O=C1C2C3C=CC(C3)C2C(=O)N1c1cccc2cccnc12 (configuration not stated)
IC50 [4]: 21.4 µM (active)

Cc1ccc(S(=O)(=O)N2[C@@H](c3cccc(Cl)c3)C(C(=O)O)=CC[C@H]2c2ccc(Cl)c(Cl)c2)cc1
CC50 [5]: > 40 µM (active)
IC50 [6]: 57.9 µM (active)

O=C(O)C1=CC[C@@H](c2ccc(Cl)cc2)N(S(=O)(=O)c2ccc(Cl)cc2)[C@H]1c1ccc(Br)cc1
CC50 [5]: > 40 µM (active)
IC50 [6]: 36.5 µM (active)

CC[n+]1c(S(=O)(=O)[O-])ccc2ccc(C)cc21
EC50 [7]: > 350 µM (not active)
EC50 [8]: > 350 µM (not active)

CC(C)CC(NC(=O)c1ccccc1NC(=O)c1ccccc1)C(=O)O (configuration not stated)
EC50 [7]: > 350 µM (not active)
EC50 [8]: > 350 µM (not active)

CCOc1ccc(C(=O)C2=C(O)C(=O)N(c3ccccn3)C2c2ccc(F)cc2)c(C)c1 (configuration not stated)
IC50 [1]: > 138 µM (inactive)
IC50 [2]: 13 µM (inactive)

Nc1nc(C(=O)N2CCOCC2)nn1C(=O)c1ccc(Cl)cc1
IC50 [3]: 0.00512 µM (active)
EC50 [9]: 23.4 µM (active)
AC50 [10]: 12.5 µM (active)

O=C1OC(Nc2ccc3c(c2)OCO3)c2ccccc21 (configuration not stated)
AC50 [11]: 0.577 µM (active)
IC50 [4]: > 50 µM (not active)

Cc1cccc(NC(=S)NC(=O)/C=C/c2ccccc2)n1
IC50 [3]: > 50 µM (not active)

Cc1cnc(NC(=O)c2cc(S(=O)(=O)N(C)C)ccc2N2CCCC2)s1
IC50 [1]: > 138 µM (inactive)
IC50 [2]: 2.87 µM (active)

c1ccc2c(c1)OCC(CNc1[nH]cnc3ncnc1-3)O2 (configuration not stated)
AC50 [12]: 7.15 µM (active)
AC50 [13]: 2.64 µM (active)

O=[N+]([O-])c1ccc(N/N=C/c2ccc(O)c(O)c2O)c(S(=O)(=O)N2CCOCC2)c1
IC50 [14]: 21.4 µM (active)
IC50 [15]: 55.6 µM (inactive)
EC50 [16]: 24.9 µM (active)
IC50 [17]: 2.98 µM (active)
IC50 [6]: 4.6 µM (active)
EC50 [18]: > 38 µM (not active)
IC50 [19]: > 50 µM (not active)

COc1ccc(C(=O)CC(Sc2ccccc2N)c2ccc(OC)cc2)cc1 (configuration not stated)
AC50 [20]: 28.7 µM (active)
AC50 [21]: 48.4 µM (active)
AC50 [22]: > 52 µM (inactive)

CCn1cc(C(=O)NCc2ccc(Cl)cc2)c(=O)c2cc(S(=O)(=O)N3CCOCC3)ccc21
IC50 [3]: 8.07 µM (active)

COc1ccc(NC(=O)Nc2ccc3c(c2)C(=O)N([C@H](C)CO)C[C@H](C)[C@H](CN(C)CC2CC2)OCCCC[C@H](C)O3)cc1
AC50 [23]: 25.9 µM (active)
AC50 [12]: 26.5 µM (active)
AC50 [13]: 23.5 µM (active)

Sc1nc(Cc2ccc(Cl)cc2)nc2ccccc12
IC50 [1]: > 138 µM (inactive)
IC50 [2]: 7.46 µM (active)

C[C@H](CO)N1C[C@H](C)[C@H](CN(C)Cc2cccnc2)OCc2ccccc2-c2c(n(C)c3ccccc23)C1=O
AC50 [23]: 15.6 µM (active)
AC50 [12]: 1.21 µM (active)
AC50 [13]: 0.805 µM (active)

CC(Oc1ccc2ccc(=O)oc2c1)C(=O)NCCN1CCOCC1 (configuration not stated)
EC50 [7]: > 350 µM (not active)
EC50 [8]: > 350 µM (not active)
